# Source: patent US8362064B2, “Sulfonamide compounds for the treatment of respiratory disorders” (Pulmagen Theraputics (Inflammation) Limited, priority 2008, dated 2013)
# Where two headings read alike, the source gives them in different places. Marks after values point to notes of the source that are not given here.
# What was measured:
# [1] = molecular target: T1, human PPARγ (Homo sapiens, UniProt P37231); experiment: Human PPAR gamma agonist activity, GAL4-luciferase transactivation in transfected HEK-293 cells; format: cell-based; conditions: fold increase in gene transactivation (luciferase), 18 hours incubation, classes at 10 μM or 1 μM
# T1 construct: expressed in transfected cells; host or cells: HEK-293 (Human Embryonic Kidney) cells
# T1 sequence (P37231 1-505): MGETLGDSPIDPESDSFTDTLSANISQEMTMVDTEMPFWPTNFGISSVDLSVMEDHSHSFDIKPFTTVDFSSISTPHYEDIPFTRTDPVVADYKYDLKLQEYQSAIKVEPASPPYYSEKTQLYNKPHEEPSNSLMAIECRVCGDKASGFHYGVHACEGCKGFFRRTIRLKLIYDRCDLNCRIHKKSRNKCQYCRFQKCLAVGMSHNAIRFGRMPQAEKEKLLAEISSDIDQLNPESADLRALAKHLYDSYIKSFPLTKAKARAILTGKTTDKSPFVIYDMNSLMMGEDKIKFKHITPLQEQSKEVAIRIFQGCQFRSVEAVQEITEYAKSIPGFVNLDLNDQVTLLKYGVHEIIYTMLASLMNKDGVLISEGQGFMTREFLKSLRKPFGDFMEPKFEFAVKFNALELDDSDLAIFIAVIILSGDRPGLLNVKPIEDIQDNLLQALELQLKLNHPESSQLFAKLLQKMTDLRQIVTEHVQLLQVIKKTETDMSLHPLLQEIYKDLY
# Method: HEK-293 (Human Embryonic Kidney) cells were seeded at a density of 2.8×10^5 cells/well in a 6 well plate in DMEM +10% delipidated FBS medium and incubated at 37° C., 5% CO2. At 70-80% confluency cells were transfected with human pCDNA3.1E˜PPARγ+pGL2˜GAL4x5˜Luc+pADV plasmids for 3 hours (ratio 2:0.25:1.25 μg/well). The transfection medium was then replaced with fresh medium and cells were incubated for 48 hours.
# Varying final concentrations of compounds (vehicle=0.1% DMSO) of the invention were prepared in medium (50 μl/well) and added to the wells in a 96 well plate. Transfected cells were harvested and pelleted by centrifugation. The cell pellet was resuspended in medium and cells counted. 10,000 cells/well were added to the 96 well plate containing compounds of the invention and incubated for 18 hours. Luminescence produced following agonism of the PPAR gamma receptor was determined using Packard luciferase substrate reagent (100 μl/well). Light emission was quantified by counting SPC mode using a Top Count. Fold activation was calculated using the following formula: […]
# All compounds show activity as PPAR gamma agonists at 30 μM. Key for relative activity: • *<8 fold increase in gene transactivation with 10 μM • **>8 fold increase in gene transactivation with 10 μM • ***>8 fold increase in gene transactivation with 1 μM.
# [2] = tested on: TS induced BAL neutrophil influx; experiment: Pre-clinical mouse model of COPD inflammation (tobacco smoke induced pulmonary inflammation), BAL neutrophil counts; format: in vivo; conditions: mice; for Inhibition of TS induced BAL neutrophil influx: BAL 24 h after final TS; for TS induced influx of neutrophils in the BAL (in words): administered by a surrogate route for inhalation (intra-nasal)
# Method: Protocols for the exposure of mice to TS, obtaining bronchoalveolar lavage (BAL), preparation of cytospin slides for differential cell counts are as outlined below.
# In this exposure protocol, mice were exposed in groups of 5 in individual clear polycarbonate chambers (27 cm×16 cm×12 cm). The TS from the cigarettes was allowed to enter the exposure chambers at a flow rate of 100 mL/min. In order to minimize any potential problems caused by repeated exposure to a high level of TS (6 cigarettes), the exposure of the mice to TS was increased gradually over the exposure period to a maximum of 6 cigarettes. The exposure schedule used for 4 days was as follows:
# A further group of mice was exposed to air on a daily basis for an equivalent length of time as controls (no TS exposure).
# Bronchoalveolar lavage was performed as follows: the trachea was cannulated using a Portex nylon intravenous cannula (pink luer fitting) shortened to approximately 8 mm. Phosphate buffered saline (PBS) was used as the lavage fluid. A volume of 0.4 mL was gently instilled and withdrawn 3 times using a 1 mL syringe and then placed in an Eppendorf tube and kept on ice prior to subsequent determinations.
# Lavage fluid was separated from cells by centrifugation and the supernatant decanted and frozen for subsequent analysis. The cell pellet was re-suspended in a known volume of PBS and total cell numbers calculated by counting a stained (Turks stain) aliquot under a microscope using a haemocytometer.
# The residual cell pellet was diluted to approximately 10^5 cells per mL. A volume of 500 μL was placed in the funnel of a cytospin slide and centrifuged for 8 min at 800 rpm. The slide was air dried and stained using ‘Kwik-Diff’ solutions (Shandon) as per the proprietary instructions. When dried and cover-slipped, differential cells were counted using light microscopy. Up to 400 cells were counted by unbiased operator using light microscopy. Cells were differentiated using standard morphometric techniques.
# Mice were dosed intra-nasally (surrogate for oral inhalation) with vehicle (0.2% tween 80 in saline), Example 1 (0.1 mg/kg), Example 10 (0.1 mg/kg), Example 10 (0.03 mg/kg), or Example 10 (0.01 mg/kg), at 3 hours prior to tobacco smoke exposure each day. The control group of mice received vehicle 3 hrs prior to being exposed to air daily for a maximum of 50 minutes per day. BAL was performed 24 h following the final TS exposure.
# In a separate experiment, mice were dosed intra-nasally (surrogate for oral inhalation) with either vehicle (0.2% tween 80 in saline), Example 7 (0.1 mg/kg), Compound 7 (0.03 mg/kg), Example 15 (0.1 mg/kg), or Example 15 (0.03 mg/kg), 1 hour prior to tobacco smoke exposure each day. The control group of mice received vehicle 1 hr prior to being exposed to air daily for a maximum of 50 minutes per day. BAL was performed 24 h following the final TS exposure.
# All results are presented as individual data points for each animal and the mean value was calculated for each group. Since tests for normality were positive the data was subjected to a one way analysis of variance test (ANOVA), followed by a Bonferroni correction for multiple comparisons in order to test for significance between treatment groups. A “p” value of <0.05 was considered to be statistically significant. Percentage inhibitions were automatically calculated within the Excel spreadsheets for the cell data using the formula below:
# [formula] Inhibition data for other parameters were calculated manually using the above formula.
# [3] = In vivo pharmacokinetic study, plasma AUC after oral and i.v. dosing; design: species or system male Wistar rats; conditions: for plasma AUC following i.v. dosing (in words) / oral bioavailability (in words) / AUC: rat; for oral bioavailability (in words): oral vs i.v. plasma AUC; for AUC: plasma
# Method: The suitability of the compounds exemplified in Examples 7, 10 and 15 above for inhalation for the treatment of lung diseases was examined by standard in vivo pharmacokinetic studies using male Wistar rats as known in the art. […] A single 1 mg/kg dose of Example 7, Example 10 and Example 15 was administered in 10% DMSO, 10% Cremophor ELP, 10% PEG 400, 10% EtOH and 60% Milli Q Water by the intravenous (IV) route and plasma samples taken 15 minutes, 30 minutes, 1 hour, 2 hours, 3 hours, 5 hours, 8 hours, 10 hours and 24 hours. Concentrations of Example 7, Example 10 and Example 15 in the various plasma samples were determined using standard analytical procedures.
# Standard pharmacokinetic parameters following IV or oral dosing were calculated from the plasma concentration data, including Area under the curve (AUC), maximum plasma concentration (Cmax), time of maximum plasma concentration (Tmax), Elimination time (Kel) and plasma half-life (T½).
# Compounds suitable for inhalation for the treatment of lung diseases have low plasma AUC following i.v. dosing indicating reduced likelihood of systemic side effects. Compounds suitable for inhalation for the treatment of lung diseases also have low oral bioavailability indicated by a much lower plasma AUC following oral dosing as that achieved by i.v. dosing. Low oral bioavailability leads to only a small fraction of the swallowed drug following inhalation being absorbed into the plasma, further reducing the likelihood of systemic side effects.
# [4] = rat, cited from earlier work
# [5] = 0.1 mg/kg intra-nasally 3 hours prior to TS exposure each day for 4 days
# [6] = 0.03 mg/kg intra-nasally 1 hour prior to TS exposure each day for 4 days
# [7] = 0.1 mg/kg intra-nasally 1 hour prior to TS exposure each day for 4 days
# [8] = iv, male Wistar rats, single 1 mg/kg i.v. dose, read-out: Plasma AUC following 1 mg/kg i.v. dose
# [9] = male Wistar rats, derived from 5 mg/kg oral dose PK data, read-out: Plasma AUC following 1 mg/kg oral dose
smiles,measurement,setting,value
"Cc1ccc(-n2cc(Oc3ccc(NS(=O)(=O)c4ccc(Cl)cc4Cl)cc3)cn2)cc1 [Example 1, 2,4-dichloro-N-[4-(1-p-tolyl-1H-pyrazol-4-yloxy)-phenyl]benzene sulfonamide]",PPARγ agonist activity,[1],*** (>8 fold increase in gene transactivation with 1 μM)
same,Inhibition of TS induced BAL neutrophil influx,[2]; [5],72%
same,TS induced influx of neutrophils in the BAL (in words),[2],significantly inhibit
same,melting point,,152 to 153 °C
O=S(=O)(Nc1cc(Cl)c(Oc2cnn(-c3ccc(F)cc3F)c2)c(Cl)c1)c1ccc(Cl)cc1Cl [Example 3],PPARγ agonist activity,[1],*** (>8 fold increase in gene transactivation with 1 μM)
O=S(=O)(Nc1cc(Cl)c(Oc2cnn(-c3ccc(F)cc3)c2)c(Cl)c1)c1ccc(Cl)cc1Cl [Example 4],PPARγ agonist activity,[1],*** (>8 fold increase in gene transactivation with 1 μM)
O=S(=O)(Nc1ccc(Oc2cnn(-c3ccc(F)cc3)c2)c(Cl)c1)c1ccc(Cl)cc1Cl [Example 5],PPARγ agonist activity,[1],*** (>8 fold increase in gene transactivation with 1 μM)
O=S(=O)(Nc1ccc(Oc2cnn(-c3ccc(Cl)cc3)c2)c(Cl)c1)c1ccc(Cl)cc1Cl [Example 6],PPARγ agonist activity,[1],*** (>8 fold increase in gene transactivation with 1 μM)
O=S(=O)(Nc1ccc(Oc2cnn(-c3ccc(F)c(Cl)c3)c2)c(Cl)c1)c1ccc(Cl)cc1Cl [Example 7],PPARγ agonist activity,[1],** (>8 fold increase in gene transactivation with 10 μM)
same,Inhibition of TS induced BAL neutrophil influx,[2]; [6],37%
same,Inhibition of TS induced BAL neutrophil influx,[2]; [7],64%
same,TS induced influx of neutrophils in the BAL (in words),[2],significantly inhibit
same,plasma AUC following i.v. dosing (in words),[3],low
same,oral bioavailability (in words),[3],low
same,AUC,[3]; [8],1080 ± 240 ng·h/mL
same,AUC,[3]; [9],40 ± 8 ng·h/mL
Cc1ccc(S(=O)(=O)Nc2ccc(Oc3cnn(-c4ccc(F)cc4)c3)c(Cl)c2)cc1 [Example 8],PPARγ agonist activity,[1],** (>8 fold increase in gene transactivation with 10 μM)
Cc1cc(NS(=O)(=O)c2ccc(Cl)cc2Cl)ccc1Oc1cnn(-c2ccc(F)cc2)c1 [Example 9],PPARγ agonist activity,[1],*** (>8 fold increase in gene transactivation with 1 μM)
Cc1ccc(-n2cc(Oc3ccc(NS(=O)(=O)c4ccc(Cl)cc4Cl)cc3)cn2)c(C)c1 [Example 10],PPARγ agonist activity,[1],*** (>8 fold increase in gene transactivation with 1 μM)
same,Inhibition of TS induced BAL neutrophil influx,[2]; 0.01 mg/kg intra-nasally 3 hours prior to TS exposure each day for 4 days,42%
same,Inhibition of TS induced BAL neutrophil influx,[2]; 0.03 mg/kg intra-nasally 3 hours prior to TS exposure each day for 4 days,50%
same,Inhibition of TS induced BAL neutrophil influx,[2]; [5],72%
same,TS induced influx of neutrophils in the BAL (in words),[2],significantly inhibit
same,Plasma AUC following 1 mg/kg oral dose,"[3]; male Wistar rats, oral gavage (5 mg/kg given), limit of detection was 5 ng/ml",None
same,plasma AUC following i.v. dosing (in words),[3],low
same,oral bioavailability (in words),[3],low
same,AUC,[3]; [8],210 ± 60 ng·h/mL
Cc1ccc(-n2cc(Oc3ccc(NS(=O)(=O)c4ccc(C)cc4)cc3)cn2)cc1 [Example 11],PPARγ agonist activity,[1],* (<8 fold increase in gene transactivation with 10 μM)
O=S(=O)(Nc1ccc(Oc2cnn(-c3ccc(F)cc3)c2)c(Cl)c1)c1ccccc1 [Example 12],PPARγ agonist activity,[1],* (<8 fold increase in gene transactivation with 10 μM)
O=S(=O)(Nc1ccc(Oc2cnn(-c3ccccc3)c2)c(Cl)c1)c1ccc(Cl)cc1Cl [Example 13],PPARγ agonist activity,[1],*** (>8 fold increase in gene transactivation with 1 μM)
Cc1ccc(S(=O)(=O)Nc2ccc(Oc3cnn(-c4ccc(C)cc4C)c3)cc2)cc1 [Example 14],PPARγ agonist activity,[1],* (<8 fold increase in gene transactivation with 10 μM)
Cc1ccc(S(=O)(=O)Nc2ccc(Oc3cnn(-c4ccc(C)cc4C)c3)c(Cl)c2)cc1 [Example 15],PPARγ agonist activity,[1],** (>8 fold increase in gene transactivation with 10 μM)
same,Inhibition of TS induced BAL neutrophil influx,[2]; [6],66%
same,Inhibition of TS induced BAL neutrophil influx,[2]; [7],69%
same,TS induced influx of neutrophils in the BAL (in words),[2],significantly inhibit
same,plasma AUC following i.v. dosing (in words),[3],low
same,oral bioavailability (in words),[3],low
same,AUC,[3]; [8],170 ± 60 ng·h/mL
same,AUC,[3]; [9],1 ± 2 ng·h/mL
CN(CCOc1ccc(CC2SC(=O)NC2=O)cc1)c1ccccn1 (stereo not shown) [Rosiglitazone],plasma AUC following an i.v. dose (in words),[4]; i.v.,high
same,oral bioavailability (in words),[4]; oral vs i.v. plasma AUC,high
same,Plasma AUC following 1 mg/kg i.v. dose,"[4]; FDA Pharmacology review data, derived from 0.4 mg/kg i.v. dose PK data",13.75*** μg*hr/ml
same,Plasma AUC following 1 mg/kg oral dose,"[4]; FDA Pharmacology review data, derived from 0.4 mg/kg oral dose PK data",14.28*** μg*hr/ml
